From patent publication US20240165202A1, “USES OF FGF21 POLYPEPTIDES AND FUSION POLYPEPTIDES THEREOF” (SUNSHINE LAKE PHARMA CO., LTD., priority 2021, published 2024)

How the values were obtained:
[1] = test system: ob/ob mice nonalcoholic steatohepatitis (NASH) model; test: ob/ob mice high-fat diet NASH model, 6 weeks dosing: blood glucose and body weight; assay type: in vivo; conditions: 10 nmol/kg
Description: (§1) 70 Male ob/ob mice (Changzhou Cavens Laboratory Animal Co., Ltd.) weighed about 43-45 g were fed with high-fat diet (D12492, Research Diets, Inc., New Brunswick, NJ) for 9 weeks to establish a nonalcoholic steatohepatitis (NASH) model. 3 Weeks after HFD feeding, the therapeutic efficacy of the compounds dual target fusion protein 1 #, Fc-FGF21 (single target 1 #) and Dulaglutide were tested after 6 weeks of dosing. The experimental animals were randomly divided into 5 groups according to body weight and blood glucose after […] of HFD feeding: the model group (group-1, n=10), the dual target fusion protein 1 #-3 nmol/kg group (group-2, n=10); the dual target fusion protein 1 #-10 nmol/kg group (group-3, […]); Fc-FGF21-10 nmol/kg group (group-4, n=10); Dulaglutide-10 nmol/kg (group-5, n=10). The model group was administrated PBS. The groups of dual target fusion protein 1 #, Fc-FGF21, and Dulaglutide were administrated twice a week for a total of 6 weeks. Feed intake, water intake and body weight of animals were recorded every two days after the start of HFD feeding until the end of the experiment. Blood glucose was measured at 0, 2, 7, 24, 48, 72 hours after the first administration, and then twice a week. At the end of the experiment, the animals were fasted to detect fasting blood glucose.

[2] = test system: ob/ob mice nonalcoholic steatohepatitis (NASH) model; test: ob/ob mice high-fat diet NASH model, 6 weeks dosing: serum lipids, liver weight, liver function, liver lipids; assay type: in vivo; conditions: 10 nmol/kg
Description: as §1

[3] = test system: ob/ob mice nonalcoholic steatohepatitis (NASH) model; test: ob/ob mice high-fat diet NASH model, 6 weeks dosing: liver pathological scores; assay type: in vivo; conditions: 10 nmol/kg twice a week, Mean ± SEM, n = 10
Description: as §1

[4] = test system: high-fat-induced C57BL/6 mice model; test: High-fat diet induced C57BL/6 mice, 16 weeks dosing: random blood glucose, IPGTT, fasting glucose, insulin, HOMA-IR, body weight, fat mass; assay type: in vivo
Source text: (§2) After 16 weeks of high-fat diet feeding (D12492, Research Diets, Inc., New Brunswick, NJ), C57BL/6 mice (purchased from Hunan SJA Laboratory Animal Co., Ltd.) were randomly divided into vehicle group or treatment group according to the measured blood glucose and body weight. The study included control group with normal diet, high-fat diet Model group was administrated with vehicle PBS, subcutaneous injection of semaglutide once a day (QD) 10 nmol/kg, dual target 1 # was administrated twice weekly (BIW), the low dose was 3 nmol/kg and the high dose was 10 nmol/kg, 7 animals in each group. The drug groups were administrated the corresponding drugs according to the administration frequency for 16 consecutive weeks, and the high-fat diet was continued during the administration period until the end of the experiment. The random blood glucose, body weight and intraperitoneal glucose tolerance IPGTT of mice were monitored.
(§3) At the end of the experiment of Example 4, that is, the 16th week of administration, the animals were fasted overnight and could drink water. After the animals were weighed, the orbital blood was collected, serum was separated, and serum lipids (TG (triglyceride), TC (total cholesterol)) and liver function indexes ALT (alanine aminotransferase)/AST (aspartate aminotransferase) were detected by an automatic biochemical analyzer. Serum insulin levels were detected by Elisa kit, and the HOMA-IR index was calculated according to the formula, that is, HOMA-IR=fasting blood glucose (blood glucose value at 0 time of IPGTT in the 16th week)×fasting insulin/22.5. After the blood was collected, the liver, subcutaneous fat, epididymal fat and perirenal fat were dissected and weighed. About 40-60 mg of liver tissue was weighed and put into a homogenization tube, 1 mL of absolute ethanol was added for homogenization, then the homogenate was taken and centrifuged at 4° C., 3,500 rpm for 10 min. The supernatant was taken, and the concentrations of TG and TC in the supernatant were detected by an automatic biochemical analyzer, and then the contents of TG and TC were calculated according to the weighed liver weight

[5] = test system: high-fat-induced C57BL/6 mice model; test: High-fat diet induced C57BL/6 mice: serum lipids, ALT/AST, liver weight, liver homogenate lipids; assay type: in vivo; conditions: 16th week of administration
Source text: as §2, §3

[6] = test system: high-fat diet induced C57BL/6 mice model; test: High-fat diet induced C57BL/6 mice: liver histopathology NAS and fibrosis scores; assay type: in vivo; conditions: 10 nmol/kg (semaglutide QD, dual target 1# BIW), 16 weeks, Mean ± SD, n = 6-7
Source text: as §2
The left lobe of the liver obtained by dissection in Example 5 was immersed in a 50 mL centrifuge tube filled with formalin to prepare liver disease sections, and the formalin liver tissue was subjected to wax block making, sectioning, HE staining, and HE staining slices were mailed to Suzhou KCl Co., Ltd. for NAS scoring; fibrosis was assessed by Sirius red staining, and the scores were scored according to the severity of fibrosis, with a score of 1-3. Liver histopathological changes were observed under light microscope and NAS/fibrosis scores were performed.

[7] = mouse models; cited from earlier work
[8] = 10 nmol/kg (semaglutide QD, dual target 1# BIW), 16 weeks, Mean ± SD, n = 6-7

## Dulaglutide
[1]; D1 to D43
  weight growth rate compared with the model group: decreased significantly
[1]; D1 to D43, p<0.01 or 0.001
  average weight loss rate: 8.9%
[1]; after 5 days, P>0.05
  blood glucose level versus model group: less different from that of the model group
[2]
  level of serum TG compared with the model group: significantly decreased
  serum TC level compared with the model group: not significantly decreased
[3]
  Inflammatory infiltration Scores: 0.57 ± 0.13
  Liver ballooning Scores: 0.43 ± 0.26
  NAS scores: 3.80 ± 0.41
  Steatosis Scores: 2.80 ± 0.07

## Semaglutide
[4]; [8]
  Epididymal fat: 1.0 ± 0.5 g
  Perirenal fat: 0.6 ± 0.6 g
  Subcutaneous fat: 0.9 ± 1.0 g
  Total Fat: 2.6 ± 2.1 g
[4]; 10 nmol/kg, 16 weeks
  weight loss: 24.3%
[4]; 10 nmol/kg, p<0.05
  blood glucose AUCO-72h after the first administration, compared with the Model group: significantly reduce
[4]; 16 weeks, P<0.001
  body weight growth rate compared with the Model group: significantly reduce
[4]; end of experiment, serum, P<0.001
  insulin level compared with Model: significantly reduce
[4]; end of experiment, P<0.001
  HOMA-IR index compared with Model: significantly reduce
[4]; weeks 2, 8 and 16, 30-90 min or 15-90 min after glucose
  IPGTT: blood glucose after glucose administration and area under the blood glucose curve, compared with Model: significantly reduce
[5]
  TG in liver homogenate compared with the Model: significantly reduce
  liver absolute weight compared with the Model: significantly reduce
  serum ALT level compared with the Model: significantly reduce
  serum AST level compared with the Model: significantly reduce
  serum TC compared with Model: significantly reduce
  serum TG compared with Model: significantly reduce
[6]
  NAS total score: 0.0 ± 0.0
[6]; Sirius red, score 1-3
  Fibrosis Manual Score: 1.5 ± 0.5
[6]; score
  Balloon degeneration: 0.0 ± 0.0
  Inflammation: 0.0 ± 0.0
  Liver steatosis: 0.0 ± 0.0

B1: FGF21: member of the FGF family (fibroblast growth factors); native FGF21 with short half-life (protein, UniProt Q9NSA1 29-209, looked up)
Fibroblast growth factor 21: HPIPDSSPLLQFGGQVRQRYLYTDDAQQTEAHLEIREDGTVGGAADQSPESLLQLKALKPGVIQILGVKTSRFLCQRPDGALYGSLHFDPEACSFRELLLEDGYNVYQSEAHGLPLHLPGNKSPHRDPAPRGPARFLPLPGLPPALPEPPGILAPQPPDVGSSDPLSMVGPSQGRSPSYAS
[7]
  half-life: about 1 h
